Experimental data as given in ChEMBL document CHEMBL3352513, “Discovery of 3-Arylcoumarin-tetracyclic Tacrine Hybrids as Multifunctional Agents against Parkinson's Disease” (2014).
Calls of active or inactive are those of the source. The calls are words filed in the database; no cut-off is given here.

What was measured:
[1] = biological target: T1, Acetylcholinesterase 1 (Caenorhabditis elegans) (UniProt P38433); assay: Inhibition of AChE in Caenorhabditis elegans assessed as increase in acetylcholine after 48 hrs by Amplex red assay
T1 sequence (whole entry): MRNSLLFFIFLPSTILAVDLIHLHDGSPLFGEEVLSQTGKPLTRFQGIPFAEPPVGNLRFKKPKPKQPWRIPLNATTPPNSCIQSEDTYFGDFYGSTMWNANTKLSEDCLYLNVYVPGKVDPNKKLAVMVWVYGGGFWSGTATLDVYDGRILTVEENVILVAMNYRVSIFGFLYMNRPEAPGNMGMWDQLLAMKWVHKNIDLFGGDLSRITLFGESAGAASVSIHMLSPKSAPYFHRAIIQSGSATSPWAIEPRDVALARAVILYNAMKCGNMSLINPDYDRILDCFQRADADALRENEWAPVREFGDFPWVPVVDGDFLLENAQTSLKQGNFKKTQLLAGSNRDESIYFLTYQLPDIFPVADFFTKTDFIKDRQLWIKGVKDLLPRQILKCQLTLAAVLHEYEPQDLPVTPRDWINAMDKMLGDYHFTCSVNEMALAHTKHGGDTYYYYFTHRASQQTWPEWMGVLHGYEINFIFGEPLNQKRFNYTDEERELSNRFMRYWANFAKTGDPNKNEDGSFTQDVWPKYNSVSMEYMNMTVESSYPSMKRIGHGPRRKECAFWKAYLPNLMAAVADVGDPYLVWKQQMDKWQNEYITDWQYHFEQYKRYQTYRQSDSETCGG

[2] = biological target: Alpha-synuclein (Homo sapiens) (UniProt P37840); assay: Inhibition of YFP-tagged human alpha-synuclein aggregation expressed in transgenic Caenorhabditis elegans model NL5901 incubated for 48 hrs by fluorescent microscopy relative to untreated control
Caenorhabditis elegans [3] = assay: Antioxidant activity in Caenorhabditis elegans N2 assessed as reduction in ROS generation H2DCFDA dye based fluorescent assay; type: functional
HEK293 [4] = assay: Cytotoxicity against HEK293 cells assessed as inhibition of cell proliferation at 2 mM after 48 hrs by MTT assay; type: functional; settings: Homo sapiens, HEK293, 48 h; read-out: GI
HEK293 [5] = assay: Cytotoxicity against HEK293 cells assessed as inhibition of cell proliferation at 500 uM after 48 hrs by MTT assay; type: functional; settings: Homo sapiens, HEK293, 48 h; read-out: GI
Caenorhabditis elegans [6] = assay: […] content in Caenorhabditis elegans N2 assessed as reduction in response time after 48 hrs nonanol repulsion assay; type: functional
Caenorhabditis elegans [7] = assay: Increase in DAF16 nuclear localization in GFP expressing Caenorhabditis elegans TJ356 after 48 hrs by fluorescence microscopy; type: functional, organism-based
HepG2 [8] = assay: Cytotoxicity against human HepG2 cells assessed as inhibition of cell proliferation at 2 mM after 48 hrs by MTT assay; type: functional; settings: HepG2, 48 h, read-out: GI
HepG2 [9] = assay: Cytotoxicity against human HepG2 cells assessed as inhibition of cell proliferation at 500 uM after 48 hrs by MTT assay; type: functional; settings: HepG2, 48 h, read-out: GI
Caenorhabditis elegans [10] = assay: […] content in Caenorhabditis elegans NL5901 assessed as reduction in response time after 48 hrs nonanol repulsion assay; type: functional

SMILES: COc1ccc(-c2cc3cc(C4C5=C(CC(C)(C)CC5=O)Oc5nc6c(c(N)c54)CCC6)cc(C(C)C)c3oc2=O)cc1 (racemic)
- fold change (FC) [1]: 1.5
- inhibition [2]: inactive
- fold change (FC) (Caenorhabditis elegans [3]): 2.16

SMILES: COc1cc(-c2cc3cc(C4C5=C(CCCC5=O)Oc5nc6c(c(N)c54)CCCC6)cc(C(C)C)c3oc2=O)cc(OC)c1OC (racemic)
- inhibition of growth at 2000 µM (HEK293 [4]): 73.8%
- inhibition of growth at 500 µM (HEK293 [5]): 54%
- fold change (FC) (Caenorhabditis elegans [6]): 2.6
- Activity (Caenorhabditis elegans [7]): Active
- inhibition of growth at 2000 µM (HepG2 [8]): 27.8%
- fold change (FC) [1]: 1.2
- inhibition of growth at 500 µM (HepG2 [9]): 26.1%
- fold change (FC) (Caenorhabditis elegans [10]): 1.75
- fold change (FC) [2]: 2.6
- fold change (FC) (Caenorhabditis elegans [3]): 1.72

SMILES: CCC(C)c1cc(C2C3=C(CCCC3=O)Oc3nc4c(c(N)c32)CCCC4)cc2cc(-c3cc(OC)c(OC)c(OC)c3)c(=O)oc12 (racemic)
- inhibition of growth at 2000 µM (HEK293 [4]): 56.9%
- inhibition of growth at 500 µM (HEK293 [5]): 6.5%
- fold change (FC) (Caenorhabditis elegans [6]): 1.8
- Activity (Caenorhabditis elegans [7]): inactive
- inhibition of growth at 2000 µM (HepG2 [8]): 16.5%
- fold change (FC) [1]: 1.15
- inhibition of growth at 500 µM (HepG2 [9]): 8.66%
- fold change (FC) (Caenorhabditis elegans [10]): 1.9
- fold change (FC) [2]: 2.1
- fold change (FC) (Caenorhabditis elegans [3]): 1.84

SMILES: CCC(C)c1cc(C2C3=C(CC(C)(C)CC3=O)Oc3nc4c(c(N)c32)CCCC4)cc2cc(-c3cc(OC)c(OC)c(OC)c3)c(=O)oc12 (racemic)
- inhibition [1]: inactive
- fold change (FC) [2]: 1.35

SMILES: CCC(C)c1cc(C2C3=C(CC(C)(C)CC3=O)Oc3nc4c(c(N)c32)CCCC4)cc2cc(-c3ccc(OC)cc3)c(=O)oc12 (racemic)
- fold change (FC) [1]: 1.51
- fold change (FC) [2]: 2

SMILES: CCC(C)c1cc(C2C3=C(CCCC3=O)Oc3nc4c(c(N)c32)CCC4)cc2cc(-c3cc(OC)c(OC)c(OC)c3)c(=O)oc12 (racemic)
- fold change (FC) [1]: 1.14
- fold change (FC) [2]: 1.76

SMILES: COc1ccc(-c2cc3cc(C4C5=C(CC(C)(C)CC5=O)Oc5nc6c(c(N)c54)CCC6)cc(C(C)C)c3oc2=O)cc1OC (racemic)
- fold change (FC) [1]: 1.19
- inhibition [2]: inactive

SMILES: COc1ccc(-c2cc3cc(C4C5=C(CC(C)(C)CC5=O)Oc5nc6c(c(N)c54)CCCC6)cc(C(C)C)c3oc2=O)cc1 (racemic)
- fold change (FC) [1]: 1.88

SMILES: COc1ccc(-c2cc3cc(C4C5=C(CC(C)(C)CC5=O)Oc5nc6c(c(N)c54)CCCC6)cc(C(C)C)c3oc2=O)cc1OC (racemic)
- fold change (FC) [1]: 1.16
- inhibition [2]: inactive

SMILES: Nc1c2c(nc3ccccc13)CCCC2 [TACRINE]
- inhibition of growth at 2000 µM (HEK293 [4]): 83%
- inhibition of growth at 500 µM (HEK293 [5]): 72.3%
- inhibition of growth at 2000 µM (HepG2 [8]): 86.9%
- inhibition of growth at 500 µM (HepG2 [9]): 83.4%
